Values quoted from earlier work as cited in US8586580B2, “2,7-substituted thieno[3,2-d] pyrimidine compounds as protein kinase inhibitors” (Korea Institute of Science and Technology, priority 2009, dated 2013).

System: PC-3, BT-474, LoVo, NCI-H460, U-87 MG and BxPC-3 human tumor xenografts
Conditions: in vivo

## CN(c1ncccc1CNc1nc(Nc2ccc3c(c2)CC(=O)N3)ncc1C(F)(F)F)S(C)(=O)=O [PF-562271]
  toxicity: No special toxicity has been observed
